From patent publication USRE42700E1, “Induction of apoptosis in cancer cells” (Sanford-Burnham Medical Research Institute, priority 2001, dated 2011)

Key:
RARα = RARα (Homo sapiens, UniProt P10276); experiment: activation of RARα on the (TREpal)2-tk-CAT reporter construct; type: cell-based; settings: 1.0 μM
[1] = tested on: human acute megakaryocytic leukemia cell line M07e; experiment: M07e cell growth / proliferation; type: cell-based
Method: (§1) Cell Growth: IL-3-transfected M07e cells have been described by Thacker, D. J., et al., Leukemia 8: 871-877 (1994). Cells were grown in RPMI supplemented with 5 percent heat-inactivated fetal bovine serum (FBS) and 25 μg/ml gentamycin in a […], 5% CO2, and 100% humidity environment. Leukemic cells were obtained from patients who met the criteria for the diagnosis of AML or CML in blast crisis (see Table 1). Studies were approved by the Wayne State University Institutional Review Board. Informed consent was obtained from all patients. Leukemic blasts from patients were isolated using Ficoll hypaque. Cells at the interface between plasma and red blood cells were diluted with sterile PBS, then layered over Ficoll hypaque (1.077 density), and the leukemic cells collected at the interface. The sample to be studied represented greater than 90% blasts. The patient leukemia samples were grown in RPMI medium supplemented with 10% FBS, gentamycin (25 μg/ml), IL-3 (20 ng/ml), SCF (25 ng/ml), GM-CSF (20 ng/ml) and G-CSF (20 ng/ml). Cell growth was assessed using a cell proliferation kit.

[2] = tested on: human acute megakaryocytic leukemia cell line M07e; experiment: M07e apoptosis quantification; type: cell-based
Method: (§2) Apoptosis Quantification: Staining of apoptotic cells was performed as described by Gavreli, Y., et al., (J. Cell. Biol. 119: 493-501 (1992)) and Whitacre, C. M., et al., (Cancer Res. 55: 3697-3701 (1995)). After 3-Cl-AHPC treatment, cells were harvested, washed with PBS and resuspended at 1×10^6 cells/ml. Cell suspensions (50 μl) were stained with […] of acridine orange solution ([…]) in PBS in the dark. Cells displaying fragmented DNA were detected using a fluorescent microscope. Apoptotic cells were also detected using a kit. Cells that incorporated fluorescein labeled deoxyuridine triphosphate were detected using flow cytometry.

[3] = tested on: leukemic blasts from patients (AML or CML in blast crisis); experiment: proliferation of patient leukemic blasts; type: cell-based; settings: Homo sapiens
Method: as §1

patient leukemic cells = experiment: apoptosis of patient leukemic cells by tunnel assay and flow cytometry; type: cell-based, human; settings: for apoptotic cells: 1 μM, 24 hours
Method: as §2
Flow Cytometry: Flow cytometry was performed on a flow cytometer equipped with an argon ion laser tuned to 15 mW at […] for fluorescence excitation and light scattering. Fluorescein isothiocyanate (FITC) fluorescence was detected using a 530/30 nm band pass filter and propidium iodide (PI) fluorescence was reflected with a 560-nm short pass dichroic filter using a 585/42-nm band pass filter. The doublet discrimination module was used to identify cell aggregates (Sharpless, T., et al., Acta Cytologica 19: 577-581 (1975)). Typically, 20,000 events of list mode data were saved and analyzed.

[4] = tested on: committed marrow stem cells (CFU-GM); experiment: CFU-GM colony formation (species not stated); type: cell-based; settings: concentrations which completely inhibited leukemic colony formation
Method: (§3) CFU-GM Colony Formation: The CFU-GM colony assay was performed as described in Parchment et al., (J. Natl. Cancer Inst. 86: 273-280 (1994)).

[5] = CFU-GM colony formation, human bone marrow; type: cell-based; settings: bone marrow CFU-GM progenitor cells
Method: as §3

[6] = CFU-GM colony formation, mouse bone marrow; type: cell-based; settings: mouse, bone marrow CFU-GM progenitor cells
Method: as §3

mouse CFU-GM = experiment: CFU-GM colony formation, mouse bone marrow; type: cell-based
Method: as §3

[7] = tested on: ERK, p38 and JNK kinases in M07e and patient leukemic cells; experiment: activation of MAPK pathways (phospho-p38, phospho-ERK, phospho-JNK Western blots); type: cell-based, human; settings: 1 μM
Method: Western Blots: Western blots were performed according to the protocol of Sheikh, M. S., et al., (Oncogene, 9: 3407-3415 (1994)). Logarithmically growing cells were treated with 3-Cl-AHPC for various times and cells were harvested and lysed in Laemmli lysis buffer (0.5 M Tris-HCl, pH 6.8, 0.002M EDTA, 10% glycerol, 10% sodium dodecyl sulfate (SDS), and 5% β-mercaptoethanol). Protein lysates (50 μg/lane) were electrophoresed on 12% SDS-polyacrylamide gels and transferred to nitrocellulose membranes. Membranes were blocked with 5% nonfat dried milk in PBS/0.5% Tween 20 and then incubated with the appropriate antibodies. Horseradish peroxidase-conjugated rabbit anti-mouse IgG was used as the secondary antibody, and bands were developed using the Amersham ECL non-radioactive method.

[8] = tested on: prostate cancer LNCaP, lung cancer NCI-H460, breast cancer ZR-75-1 and MDA-MB231 cells; experiment: DAPI staining apoptosis in cancer cell lines; type: cell-based; settings: 10^−6 M
Method: In FIG. 11, the indicated cancer cells were treated with 10^−6 M 3-Cl-AHPC, trypsinized, washed with PBS, fixed with 3.7% paraformaldehyde, and stained with 50 μg/ml DAPI containing 100 μg/ml DNase-free RNase A to visualize nuclei by fluorescent microscopy. The number of apoptotic cells with nuclear morphology typical of apoptosis, including nuclear fragmentation and condensation, was scored in at least 400 cells in each sample using a fluorescence microscope. In FIG. 12, the indicated cancer cells were treated with 10^−6 M 3-Cl-AHPC, trypsinized, washed with PBS, fixed with 3.7% paraformaldehyde, and stained with 50 μg/ml DAPI containing 100 μg/ml DNase-free RNase A to visualize nuclei and examined by fluorescent microscopy. Number of apoptotic cells with nuclear morphology typical of apoptosis, including nuclear fragmentation and condensation, was scored in at least 400 cells in each sample using a fluorescence microscope.

MCF-7 = experiment: apoptosis induction / cell death in breast cancer cells; type: cell-based, human
ZR-75 = experiment: as above; type: cell-based, human
MDA-MB-231 = experiment: as above; type: cell-based, human
[9] = tested on: human MX-1 breast adenocarcinoma cells; experiment: MX-1 human mammary adenocarcinoma growth in SCID mice; type: in vivo
[10] = tested on: ALL cells obtained from patients; experiment: apoptosis of primary ALL cells obtained from patients; type: cell-based, human; settings: primary cultures

Sequence of RARα (P10276 whole entry, species assumed): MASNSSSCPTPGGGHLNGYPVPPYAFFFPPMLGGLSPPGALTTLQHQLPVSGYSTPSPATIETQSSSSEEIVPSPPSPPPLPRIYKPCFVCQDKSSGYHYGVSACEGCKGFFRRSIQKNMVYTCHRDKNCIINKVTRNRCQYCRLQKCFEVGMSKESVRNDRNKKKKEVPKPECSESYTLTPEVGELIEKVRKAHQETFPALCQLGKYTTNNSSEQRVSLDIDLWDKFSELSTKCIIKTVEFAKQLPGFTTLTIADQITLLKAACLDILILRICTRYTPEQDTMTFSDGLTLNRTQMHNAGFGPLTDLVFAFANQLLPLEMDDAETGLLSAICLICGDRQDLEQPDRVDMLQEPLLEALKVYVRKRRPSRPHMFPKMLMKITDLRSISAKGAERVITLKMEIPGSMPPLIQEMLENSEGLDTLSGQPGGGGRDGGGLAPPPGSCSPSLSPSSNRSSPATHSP

O=C(O)/C=C/c1ccc(-c2ccc(O)c(C34CC5CC(CC(C5)C3)C4)c2)c(Cl)c1 [Example 3-Cl-AHPC, (E)-4-[3-(1-Adamantyl)-4-hydroxyphenyl]-3-chlorocinnamic acid]
activation of RARα (RARα): does not activate
concentration required to inhibit growth of M07e cells [1]: 0.2 µM
inhibition of growth ([1]; 0.2 μM): inhibition of growth
inhibition of proliferation ([1]; varying concentrations over time): progressive increase in the inhibition of proliferation
apoptosis ([2]; 0.2 μM): no significant increase in apoptosis
apoptosis ([2]; 0.5 and 1.0 μM): onset of apoptosis
concentration required to induce apoptosis ([2]; M07e cells): 0.5 µM
inhibition at 1 µM [3]: 60 to 90%
patient leukemic cells that underwent apoptosis (patient leukemic cells): over 80%
apoptotic cells (patient leukemic cells; patient 1): 67%
apoptotic cells (patient leukemic cells; patient 10): 80%
inhibition of CFU-GM colony formation [4]: 30%
IC90 [5]: > 15000 nM
IC90 [6]: 315 to 794 nM
toxicity to mouse relative to human CFU-GM (mouse CFU-GM): 30 fold
activation of ERK, p38 and JNK kinases [7]: inactivation of ERK, p38 and JNK kinases
induction of apoptosis (DAPI staining) [8]: potently induced apoptosis
ED50 (concentration that results in 50% cell death) (MCF-7): 850 nM
ED50 (concentration that results in 50% cell death) (ZR-75): 700 nM
ED50 (concentration that results in 50% cell death) (MDA-MB-231): 650 nM
animal deaths ([9]; dose not stated (Table 5)): no animal deaths
inhibition of tumor growth ([9]; dose not stated (Table 5)): 70%
weight loss ([9]; dose not stated (Table 5)): less than 4%
% body wt loss ([9]; total dose 91 mg/kg, Qd (3-9)): −2%
Drug deaths ([9]; total dose 91 mg/kg, Qd (3-9)): 0/5
T/C % ([9]; total dose 91 mg/kg, Qd (3-9)): 62%
% body wt loss ([9]; total dose 140 mg/kg, Qd (3-9)): −4%
Drug deaths ([9]; total dose 140 mg/kg, Qd (3-9)): 0/5
T/C % ([9]; total dose 140 mg/kg, Qd (3-9)): 56%
% body wt loss ([9]; total dose 210 mg/kg, Qd (3-9)): −4%
Drug deaths ([9]; total dose 210 mg/kg, Qd (3-9)): 0/5
Log cell kill ([9]; total dose 210 mg/kg, Qd (3-9)): 1.2
T/C % ([9]; total dose 210 mg/kg, Qd (3-9)): 30%
apoptosis of ALL cells obtained from patients [10]: resulted in their apoptosis
